Results from patent publication US20110182860A1 (priority 2009, published 2011).
Marks after values point to notes of the source that are not given here.

Tested on: sheath blight caused by Rhizoctonia solani
Experiment: Rice sheath blight field experiment (Lujiang county of Anhui province)
Format: in vivo
Source text: Rice the most important crop in China, and the sheath blight caused by Rhizoctonia solani is one of the most serious diseases in rice.

## OCC1=C[C@@H](N[C@H]2C[C@H](CO)[C@@H](O[C@H]3O[C@@H](CO)[C@H](O)[C@@H](O)[C@@H]3O)[C@H](O)[C@H]2O)[C@H](O)[C@@H](O)[C@@H]1O [Jinggangmycin (20%), Jinggangmycin]
  Control efficacy: 69.81%
  Disease severity, Means ± S.D: 26.51 ± 0.91^b %
Replicate I
  Disease severity, I: 27.43%
Replicate II
  Disease severity, II: 26.52%
Replicate III
  Disease severity, III: 25.60%
